One data set concerns the target T1, S. cerevisiae ALS P192S (Saccharomyces cerevisiae, UniProt P07342, P192S).
T1 construct: His6 (followed by a TEV protease site, pET28a) (N); made in house; host or cells: E. coli (inferred from the ScALS method)
The data set is described as follows: biochemical. The format is biochemical. The procedure:
ALS biochemical assay (ScALS)
Saccharomyces cerevisiae acetohydroxyacid synthase (ScALS) lacking the N-terminal […]
Escherichia coli as an N-terminally His6-tagged protein. Assays (50 µL final volume) contained […]
adenine dinucleotide, 10 mM MgCl2, 1 mM DTT, 1% DMSO (± inhibitor) in 500 mM K2HPO4 buffer at pH 7.5. Following a 30 min pre-incubation of the enzyme and inhibitor in the reaction mixture at room temperature, reactions were initiated with the addition of pyruvate. ScALS assays were carried out at 30 °C for 60 min. The reaction was quenched with the addition of 5 µL of 10% H2SO4 (v/v in deionized water). Reactions were incubated at 60 °C at 800 rpm in an […]
to acetoin. Subsequently, the concentration of acetoin was determined by the addition of 7.5 µL 6 M NaOH, 25 µL 0.5% creatine (w/v in deionized water), and 25 µL 4% 1-naphthol (w/v in 2.5 M NaOH). This mixture was incubated at 60 °C at 800 rpm in an incubating microplate shaker for […]
40 µL of this reaction mixture was transferred to a half area UV-star 96-well plate (Grenier) and the absorbance at 525 nm was measured on a Spark multimode plate reader (Tecan). The percent inhibition was calculated by the comparison of the signal to DMSO (0% […]
IC50 values were calculated from the dose response curves using Prism 9 (four parameter, variable slope). […]
Expression and purification of ScALS
S. cerevisiae ILV2 (the gene or ScALS) lacking the N-terminal mitochondrial-localization tag

A further data set in a line: physchem. Particulars: aqueous with cosolvent or surfactant or cyclodextrin, kinetic from dmso stock.
In a further data set the target is T2, ScALS (Saccharomyces cerevisiae, UniProt P07342).
T2 construct: made in house; host or cells: E. coli BL21 (DE3), pET28a-ScILV2
As to the kind of experiment: Intact protein mass spectrometry. The note with it: 10 μM, 30 min. The data set is classed as binding. An excerpt: We next characterized the structural basis for binding of 1 to ALS. Given the strained structure and the observed tight binding kinetics, we hypothesized that 1 may be binding covalently. Analysis of ALS from both AfALS and ScALS by intact protein mass spectrometry yielded traces with multiple proteoforms for both proteins. […] Limited proteolysis followed by peptide mapping localized the covalent attachment to the 239[…]258 peptide of ScALS with Lys251 and Asp252 (equivalent to Lys310 and Asp311 in AfALS) serving as the most likely attachment sites (Figure S7).
Biomek FX, Beckman Coulter Fullerton CA) were used to conduct serial dilutions and liquid […]
Solutions of 1 were added in an 11 point 2x serial dilution in DMSO with a maximum tested concentration of 32 μg/ml in the culture medium. Drug solution was added at 1% v/v into 200 μl […]
After digestion, the peptide mixture was immediately analysed by LC-MS/MS using a Waters I-class UPLC equipped with an ACQUITY UPLC BEH C18 column (2.1x50 mm, 1.7 µm, Waters) at 50 °C coupled to a Waters Synapt G2Si MS. […]

Data set [1] in a line: Liver microsome stability, human. The data set is classed as in vitro ADME. The note with it: human liver microsomes; read-out: Liver microsome t1/2 Human. On the technique in general: Liver microsomes are a subcellular fraction often used to study metabolism.
A further data set is described as follows: Plasma stability, mouse. The format is in vitro ADME. The note with it: read-out: Plasma t1/2 Mouse.
In another data set the test system is A. fumigatus. The data set is described as follows: Inhibition of A. fumigatus growth. The format is cell-based. Particulars: Aspergillus fumigatus.

≈ marks a conversion by molar mass, not a printed value.

T1 sequence (P07342 58-687 P192S): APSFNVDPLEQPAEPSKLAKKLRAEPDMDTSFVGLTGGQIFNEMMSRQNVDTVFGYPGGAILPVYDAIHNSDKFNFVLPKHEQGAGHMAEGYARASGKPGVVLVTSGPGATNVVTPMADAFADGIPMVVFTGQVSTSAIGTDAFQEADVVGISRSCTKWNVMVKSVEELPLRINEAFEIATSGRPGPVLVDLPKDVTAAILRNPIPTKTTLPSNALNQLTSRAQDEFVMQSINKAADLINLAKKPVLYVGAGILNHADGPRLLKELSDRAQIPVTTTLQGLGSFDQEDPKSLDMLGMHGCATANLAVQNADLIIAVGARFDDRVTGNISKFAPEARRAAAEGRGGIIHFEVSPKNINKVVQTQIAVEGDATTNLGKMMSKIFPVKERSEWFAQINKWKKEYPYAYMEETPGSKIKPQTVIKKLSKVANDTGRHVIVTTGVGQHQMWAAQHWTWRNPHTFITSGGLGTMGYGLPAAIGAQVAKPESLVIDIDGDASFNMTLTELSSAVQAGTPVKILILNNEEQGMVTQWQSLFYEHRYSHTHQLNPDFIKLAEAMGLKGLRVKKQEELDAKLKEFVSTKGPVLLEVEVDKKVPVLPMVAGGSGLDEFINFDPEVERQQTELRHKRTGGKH
T2 sequence (P07342 58-687): as the sequence (P07342 58-687 P192S) above, with S135P counted along it

For orientation: IC50 means the midpoint of a concentration-inhibition curve. For orientation: kinetic solubility means the concentration staying in solution when a stock, usually in DMSO, is diluted into the medium. The term EC50 denotes the concentration that produces a half-maximal response. `CCCC1C(C)=CC2CC=CC3(C)C2C1C(=O)C31C(=O)NC(CCCO)C1=O` (centres unmarked) [compound 1]: the IC50 at S. cerevisiae ALS P192S was determined as 66 ± 9 nM; in the data set on A. fumigatus (read-out: A. fumigatus growth inhibition IC50), 700 nM. Also, the “shift in potency, P192S mutant ScALS compared to wild-type ScALS” value at S. cerevisiae ALS P192S was determined as 4 fold. In “physchem”, this compound came in with a kinetic solubility of 260 µM (≈ 100 µg/mL). Moreover, at ScALS, the “covalent modification of ScALS (intact mass shift)” value is on record as “mass shifts consistent with covalent addition”. The half-life in data set [1] worked out at 3 min; in “Plasma stability, mouse”, 88 min. In addition, in the data set with A. fumigatus (read-out: A. fumigatus growth inhibition EC50 (Figure 4A)), the EC50 is 700 ± 500 nM.

The record behind these values is article PMC12947280, “An Antifungal with a Novel Mechanism of Action Discovered via Resistance Gene-Guided Genome Mining” (ACS Central Science, 2026).
